According to patent EP0441876B1, “NON-BIOA[…]” (COULSTON INTERNATIONAL CORPORATION, priority 1988, dated 1990):

Tests used:
[1] = system: Mosquitoes: Aedes aegypti, Anopheles quadramaculatus; assay: Insecticide testing on filter paper: knock-down and killing effect (Table 5); type: in vivo; settings: for Lowest Concentration With Killing Effect / Lowest Concentration for Knockdown: concentration of acetone solution, 1 ml on filter paper
Procedure: (§1) • I. Insecticide Testing Insects: Mosquitoes Species: Aedes aegypti, Anopheles quadramaculatus The mosquitoes were bred under controlled conditions (humidity, temperature and nutrition) at White Sands Research center. Test room temperature: approximately 70 F (average) Test room humidity: between 50% and 70% (average) Procedure: The test compounds were dissolved in HPLC grade acetone at the appropriate concentrations. One ml of the solution was applied with a disposable 1 ml syringe on filter paper (Whatman 541, 9.0 cm diameter). After evaporatin of the acetone, the filter paper was placed in a Petri dish (diameter also about 9.0 cm) with alid. […] The mosquitoes (not less than 5 or more than 20) were transferred in the dish through a hole in the lid. The lid was stopped up with a cotton ball wrapped in filter paper and soaked in sugar water. Two dishes with control insects - the filter paper was treated with 1 ml pure acetone - were observed. Readings were taken 3 to 4 times during the first hour, thereafter every hour. […] "Down" (D) = mosquitoes are disabled to fly, lay on their back or side. "Dead" = mosquitoes are completely moveless (e.g. no movement of body, legs or wints). these criteria can be considered as very strict. • II. Bioaccumulation Tests in Rats Species: Sprague Dawley and Fisher Rats Sex: Female Age/Weight: Young rats (average weight between 130 and 180 grams) Procedure: The animals were housed in stainless steel metabolism cages in a temperature controlled animal room. They were quarantined for at least 6 days before being placed on the study. Three rats were taken for each test compound (see appendix for dose levels). Each animal was dosed on five consecutive days by oral gavage. The test compound was dissolved or suspended in 0.5% carboxy methyl cellulose solution or corn oil (Mazola). After 14 days the rats were sacrificed by CO2. Samples of fat (abdominal) liver, kidneys, brain and muscle (leg) were removed and extracted for analysis. The fat of each rat was analyzed separately with regard to the individual total dose. The other organs of all three rats were combined and analyzed with regard to the total dose being applied to all three rats. The analysis was done by gas chromatography under ECD (electron capture detector) detection.

Aedes aegypti = assay: Filter paper test for insecticidal activity against mosquitoes (Table 3); type: in vivo; settings: for 100 % kill: time after which 100% of the mosquitoes were killed
Procedure: The experimental design of the test for activity against mosquitoes is as follows.
[…] The filter paper was then placed in a petri dish and 10-20 mosquitoes (Aedes aegypti) added. The effect of the chemical on the mosquitoes (flying activity, mortality) was observed and recorded for up to 72 hours. Generally the experiments were in triplicate, the parent cyclodiene and its dechlorinated derivative were tested and compared to the control; the filter paper of the control was treated with acetone only. A total of 9 pairs of chemicals (parent cyclodiene and dechlorinated derivative) and CIC-134 were tested according to the procedure above.

[2] = Bioaccumulation tests in rats; type: in vivo, Sprague Dawley and Fisher Rats; settings: female rats, oral gavage on five consecutive days, sacrificed after 14 days, tissue analysis by GC-ECD with regard to total dose
Procedure: as §1

[3] = system: Mosca domestica (House fly); assay: Contact test at 1% concentration; type: in vivo
[4] = system: Cimex lectularius (Bed bugs); assay: Contact test at 1% concentration; type: in vivo
[5] = system: Tenebrio molitor (Greater Meal Worm); assay: Contact test at 1% concentration; type: in vivo
[6] = system: Acheta domestica (Crickets); assay: Contact test at 1% concentration; type: in vivo
[7] = system: Blatella germanica (German cockroach); assay: Contact test at 1% concentration; type: in vivo
Maize Weevil = assay: Contact test at 1% concentration; type: in vivo
Grainery Weevil = assay: Contact test at 1% concentration; type: in vivo
Pediculus humanus (Lice) = assay: Contact test at 1% concentration; type: in vivo
[8] = system: Sitophilus Oryza (Rice Weevil); assay: Contact test at 1% concentration; type: in vivo
[9] = system: Ctenocephalides felis (Cat fleas); assay: Contact test at 1% concentration; type: in vivo
[10] = 1% solution in acetone, 1 ml on filter paper, time after which 100% of the mosquitoes were affected (dead, lying down, wobbly, erratic)
[11] = 1% solution in acetone, 1 ml on filter paper

| Molecule | Lowest Concentration With Killing Effect [1] [%] | Lowest Concentration for Knockdown [1] [%] | 100% effect (Aedes aegypti; [10]) [h] | 100 % kill (Aedes aegypti; [11]) [h] | Bioaccumulation in Rats [2] | further results |
| --- | --- | --- | --- | --- | --- | --- |
| 1,2-endo,3-endo,4,7-syn-pentachloronorbornane [CIC-144] | 0.06 | 0.06 | 0.08 | 23 | 0.01% | dead ([1]; 0.06%, after 22 hours): 79%; down ([1]; 0.06%, time not given): 55% |
| 1,2-endo,3-endo,4,7-anti-pentachlronorbornane [CIC-148] | 0.015 | 0.06 | 0.08 | 6 | ~1.30% (estimate value) | dead ([1]; 0.015%, after 5 hours): 60%; down ([1]; 0.06%, time not given): 80% |
| ClC12C=CC(Cl)(CC1)C2(Cl)Cl [CIC-142, 1,4,7,7-tetrachloronorbon-2-ene] | 0.3 | 0.75 | 0.25 | 3 | 1.24% | insecticidal effect in contact test [3]: effective insecticides; down ([1]; 0.75%, after 4 minutes): 37%; insecticidal effect in contact test [4]: effective insecticides; insecticidal effect in contact test [5]: effective insecticides; insecticidal effect in contact test [6]: only mildly effective; insecticidal effect in contact test [7]: effective insecticides; insecticidal effect in contact test (Maize Weevil): effective insecticides; insecticidal effect in contact test (Grainery Weevil): no effect; insecticidal effect in contact test (Pediculus humanus (Lice)): effective insecticides; insecticidal effect in contact test [8]: effective insecticides; insecticidal effect in contact test [9]: effective insecticides |
| Cl[C@H]1[C@H](Cl)[C@@]2(Cl)CC[C@]1(Cl)C2(Cl)Cl [CIC-146, 1,2-exo,3-endo,4,7,7-hexachloronorbornane] | > 1 |  | 3 | 24 |  |  |
| Cl[C@@H]1C[C@]2(Cl)CC[C@@]1(Cl)C2(Cl)Cl [CIC-141, 1,2-endo,4,7,7-pentachloronorbornane] | 0.125 | 0.5 | 0.25 | 10 |  | down ([1]; 0.5%, 5 minutes): 38% |
| ClC1=CC2(Cl)CCC1(Cl)C2(Cl)Cl (stereo not shown) [CIC-147, 1,2,4,7,7-pentachloronorborn-2-ene] | 0.125 | 0.125 | 0.08 | 9 | 1.04% | down ([1]; 0.125%, 10 minutes): 63%; mortality at 0.125 % ([1]; 1.5 h, read-out: dead): 50% |
| 1,2,3,4,5-endo,6-endo,7-syn-heptachoronorborn-2-ene [CIC-143] |  |  | 2 | 23 |  |  |
| 1,4,7,7-Tetrachloro-bicyclo [2.2.1]-heptane epoxide [CIC-150] | 0.5 |  | 4 | 23 |  | dead ([1]; 0.5%, after 7 hours): 27% |
| CC1CC2(Cl)CCC1(Cl)C2(Cl)Cl (stereo not shown) [CIC-151, 1,4,7,7-tetrachloro-2-methyl-norbornane] | 0.50 | 0.5 |  |  | 0.01% | down ([1]; 0.5%, time not given): 73%; mortality at 0.5 % ([1]; read-out: dead): 73%; 100% effect (Aedes aegypti; 0.5% solution in acetone on filter paper, time after which 100% of the mosquitoes were affected): 0.16 h; 100 % kill (Aedes aegypti; 0.5% solution in acetone on filter paper): 12 h |
| 1,4,7,7-Tetrachloro-bicyclo- [2.2.1]-heptane-poxide (less) [CIC-149] | 0.063 | 0.5 | 0.33 | 9 |  | dead ([1]; 0.063%, after 6 hours): 67%; down ([1]; 0.5%, after 10 minutes): 36%; Knock-down, remark in words ([1]; in vivo): Not very fast knock-down |
| Cl[C@@H]1[C@H](Cl)[C@]2(Cl)CC[C@@]1(Cl)C2 [CIC-145, 1,2-endo,3-endo,4-tetrachloronorbornane] | 0.04 | 0.08 | 0.08 | 3 | >> 0.01% | insecticidal effect in contact test [3]: effective insecticides; mortality at 0.04 % ([1]; 0.04%, after 5 hours, read-out: dead): 62%; down ([1]; 0.08%, after 5 minutes): 63%; insecticidal effect in contact test [4]: effective insecticides; insecticidal effect in contact test [5]: effective insecticides; insecticidal effect in contact test [6]: effective insecticides; insecticidal effect in contact test [7]: effective insecticides; insecticidal effect in contact test (Maize Weevil): effective insecticides; insecticidal effect in contact test (Grainery Weevil): effective insecticides; insecticidal effect in contact test (Pediculus humanus (Lice)): effective insecticides; insecticidal effect in contact test [8]: effective insecticides; insecticidal effect in contact test [9]: effective insecticides |
